Measured values: the OPERA property sets (Mansouri et al. 2018)

log10 OH rate constant (cm³/molecule/s) (25.0 °C)	SMILES	other results
-9.93	CCC=C=O	–
-10.3	C1=CC2CCC1C2	–
-10.6	C=C=CC	–
-11.6	CC(=O)c1ccccc1	–
-11.2	CC(C)C(C)C	–
-10	CC1=CCCCC1	–
-12	CC(C)(C)C(C)(C)C	–
-12	CC(C)(C)O	–
-12.6	CC	–
-13.5	CC(F)F	–
-11.2	CCCC(=O)CC	–
-10	C1=CC=CCC=C1	–
-10.2	Cc1cccc(O)c1	–
-10.3	C=CC=CC=C	–
-10.5	CC(C)=Cc1ccccc1	–
-11.1	CC(C)CC(C)C(C)C (centres undefined)	–
-10.9	CC(O)CO (centres undefined)	–
-10.2	C=C=C(C)C	–
-11	CCCCCCCCC	–
-10.3	CC(C)CS	–
-10.8	C1CCOC1	–
-11.1	C1CCCCC1	–
-10.7	c1ccc2ccccc2c1	–
-12	CCC(=O)OC	–
-9.96	CC(C)=C(C)C	–
-11.2	COCC(C)=O	–

log10 OH rate constant (cm³/molecule/s) (25.0 °C)	SMILES	other results
-11.5	CC(=O)OC(C)C	–
-11.4	COC(C)(C)OC	–
-11	CCCCCCC(C)C	–
-11.1	CCCCCCC	–
-10.4	C=CCCCCC	–
-11.3	CCC(C)OC(C)=O (centres undefined)	–
-9.92	C=C(C)CCC(=C)C	–
-10.9	CCCCCCCCC(C)=O	–
-10.8	CC(=O)C=O	–
-11	c1cocn1	–
-10.1	C=C1CCC2CC1C2(C)C (centres undefined)	–
-10.6	CCCCCCCCCCCCCCCC	–
-10.8	COc1ccccc1	–
-12.1	C#C	–
-10.8	C=C=O	–
-11	OC1CCCC1	–
-10.2	C=CCCC=C	–
-10.6	CC(C)(C)C=O	–
-10.6	COC(C)CCO (centres undefined)	–
-11.5	CCCOC(C)=O	–
-11.3	C1CCCC1	–
-11.5	CC(C)C1CC1	–
-10.9	C1CCCCCCC1	–
-11.9	c1ccccc1	–
-10.6	CC#CC	–
-10.6	C1C2CC3CC1CC(C2)C3	–

log10 OH rate constant (cm³/molecule/s) (25.0 °C)	SMILES	other results
-10.9	CCCCCCCCCC	–
-10.6	Oc1ccccc1	–
-11.9	CCC(=O)O	–
-12.1	O=C1CCC1	–
-10.5	CCCCC=O	–
-11.1	CC1CCCC(C)(C)C1 (centres undefined)	–
-10.4	C=CCCCC	–
-9.68	CC(C)=CC=C(C)C	–
-10.6	CC(C)C=O	–
-10.5	C=CC(C)(C)C	–
-10.5	Cc1cccc(C)c1C	–
-11	CCCCC(C)=O	–
-10.4	c1ccc2c(c1)CCO2	–
-12.6	CC(=O)C(C)=O	–
-10.9	CCCC(C)O (centres undefined)	–
-9.5	CC1=CCC(C(C)C)C=C1 (centres undefined)	–
-11	CCCCC(C)CCC (centres undefined)	–
-9.87	C=CC(C)=CC	–
-10	CCN(O)CC	–
-9.86	C1=CCCCC=C1	–
-10	Cc1ccoc1	–
-10.6	CCOCCOCCOCC	–
-12.1	CC(=O)O	–
-11.9	CC(=O)CC(C)=O	–
-10.6	CC(C)(N)CO	–
-11.5	CCO	–

log10 OH rate constant (cm³/molecule/s) (25.0 °C)	SMILES	other results
-11.7	CC(C)C(=O)O	–
-11	C1COCOC1	–
-10.9	COCCO	–
-10.7	CCCSCCC	–
-9.88	C=CC=C(C)C	–
-10.9	CC(C)C(C)O (centres undefined)	–
-10.4	CCC(C)S (centres undefined)	–
-9.75	CC1=CCC(C(C)C)=CC1	–
-10.9	CCC(O)CC	–
-9.97	CC(C)=C=O	–
-11	c1ccsc1	–
-12	CCOC=O	–
< -15.2	FC(F)(F)Cl	–
< -11.1	Cc1ccc2ccccc2c1[N+](=O)[O-]	–
-10.2	CS(C)=O	–
-10.5	C=C(CCl)CCl	–
-11.9	CCC	–
-11.2	CC(C)c1ccccc1	–
-11.7	CCC(=O)CC	–
-10.9	CCCCCCCC(C)=O	–
-11.3	CC(=O)OCC(C)C	–
-11.4	CC(C)C(C)(C)C	–
-10.7	CCCCCCCCCCCCCC	–

The remaining lines, values behind:

SMILES	log10 OH rate constant (cm³/molecule/s) (25.0 °C)	other results
CC(=O)C(F)(F)F	-13.8	–
CC(C)(C)C	-12.1	–
CC1=CC=C(C(C)C)CC1	–	log10 OH rate constant (cm³/molecule/s) (21.0 °C): -9.44
ClCC1CO1 (centres undefined)	-12.4	–
c1ccncc1	-12.4	–
C=C=C	–	log10 OH rate constant (cm³/molecule/s) (22.0 °C): -11
Cc1ccc(O)cc1	-10.3	–
COC(C)=O	–	log10 OH rate constant (cm³/molecule/s) (23.0 °C): -12.5
CC=O	-10.8	–
C=CCCl	-10.8	–
CCSC	-11.1	–
FC(F)Cl	-14.3	–
C1CCCOCC1	-10.8	–
C/C=C/C=O	-10.4	–
CCC=O	-10.7	–
Nc1ccc(Cl)cc1	-10.4	–
Cc1cc(C)cc(C)c1	-10.2	–
CC(=O)CCC(C)=O	-11.1	–
C=CF	-11.3	–
CCN	–	log10 OH rate constant (cm³/molecule/s) (27.0 °C): -10.6
ClCCl	-12.8	–
OCC(Cl)(Cl)Cl	-12.6	–

SMILES	log10 OH rate constant (cm³/molecule/s) (25.0 °C)	other results
COCCOCCOC	-10.8	–
Nc1ccc(Cc2ccc(N)cc2)cc1	-10.5	–
CCc1ccc(C)cc1	-10.9	–
c1ccc2c(c1)CCCC2	-10.5	–
CN(C)CCO	-10	–
FC(F)=C(Cl)Cl	-11.1	–
C=CBr	-11.2	–
Cc1ccc2ccccc2c1	-10.3	–
CC1CCCCC1	-11	–
C=CCO	-10.6	–
C1OCOCO1	-11.2	–
c1ncncn1	–	log10 OH rate constant (cm³/molecule/s) (23.0 °C): -12.8
ClCc1ccccc1	-11.5	–
Brc1ccccc1	-12.1	–
CC1CO1 (centres undefined)	-12.3	–
Cc1ccc(N)cc1N	-9.72	–
Clc1ccccc1	-12.1	–
FCCl	-13.4	–
O=[N+]([O-])c1cccc2ccccc12	-11.3	–
C#CC#C	-10.7	–
CBr	-13.4	–
Cc1ccc(C)cc1	-10.8	–

SMILES	log10 OH rate constant (cm³/molecule/s) (25.0 °C)	other results
O=[N+]([O-])c1ccccc1	-12.9	–
C1COCCO1	-11	–
CF	-13.8	–
CNN	-10.2	–
CN(C)N=O	-11.6	–
Oc1cccc(Cl)c1Cl	-11.8	–
C=COC	–	log10 OH rate constant (cm³/molecule/s) (26.0 °C): -10.5
ClC(Cl)=C(Cl)Cl	-12.8	–
O=[N+]([O-])c1ccccc1O	-12	–
Clc1ccc(-c2ccccc2)cc1	-11.4	–
C=Cc1ccccc1	-10.2	–
C1CCC2CCCCC2C1 (centres undefined)	-10.7	–
CC=Cc1ccccc1	-10.2	–
O=Cc1ccccc1	-10.9	–
c1cscn1	–	log10 OH rate constant (cm³/molecule/s) (24.0 °C): -11.9
C=CC=C	-10.2	–
FC(F)(F)CCl	-13.8	–
OCCCl	-11.9	–
ClC=C(Cl)Cl	-11.6	–
C1=CC2C=CC1C2	-9.92	–
CCCCCC	-11.3	–
Cc1ccccc1O	-10.4	–

SMILES	log10 OH rate constant (cm³/molecule/s) (25.0 °C)	other results
FC(F)(F)c1ccc(Cl)cc1	-12.6	–
c1ccc2c(c1)CCC2	-11	–
FC(F)(Cl)Br	< -15	–
CCc1ccccc1C	-10.9	–
CN(C)C	-10.2	–
Clc1cccc(Cl)c1	-12.1	–
CC(=O)OO[N+](=O)[O-]	-13	–
FC(Cl)Cl	-13.5	–
Clc1ccc(Cl)cc1	-12.5	–
c1ccc(-c2ccccc2)cc1	-11.1	–
FC(F)(F)F	< -15.4	–
C1CO1	-13.1	–
N#Cc1ccccc1	-12.5	–
C=CC(=C)C	-10	–
FC(F)C(F)(F)F	-14.6	–
Cc1ccc(C)c(C)c1	-10.5	–
FC(F)(Cl)Cl	< -15.4	–
C=CCC=C	-10.3	–
CN	–	log10 OH rate constant (cm³/molecule/s) (26.0 °C): -10.7
c1c[nH]cn1	–	log10 OH rate constant (cm³/molecule/s) (24.0 °C): -10.4
ClC(Cl)Cl	-13	–
c1ccoc1	-10.4	–
